Laboratory results as given in paper PMC6416464 (Drug Metabolism Letters, 2018).
Read-outs that look alike come from different tables or passages of the source.

Tests used:
[1] = Metabolic stability, incubation with human liver cytosol; type: in vitro ADME; details: 1 µM test compound, 1 mg/mL protein
[2] = biological target: T1, CYP3A4 (Homo sapiens, UniProt P08684); details: microsomes
[3] = biological target: rCYP3A4 (Homo sapiens, UniProt P08684)
[4] = biological target: T1, CYP3A4; experiment: in vitro; details: microsomes, pH 7.4, % Inhibition of Control Activity CYP3A4 (substrate, testosterone)
[5] = biological target: T1, CYP3A4; experiment: in vitro; details: microsomes, pH 7.4
[6] = Metabolic stability, incubation with human liver microsomes; details: 1 µM test compound, 0.5 mg/mL protein
[7] = biological target: T2, CYP2C8 (Homo sapiens, UniProt P10632); experiment: CYP inhibition in human liver microsomes, CYP2C8; details: for % Inhibition of Control Activity CYP2C8: NI: No Inhibitin
T2 sequence (P10632 1-490): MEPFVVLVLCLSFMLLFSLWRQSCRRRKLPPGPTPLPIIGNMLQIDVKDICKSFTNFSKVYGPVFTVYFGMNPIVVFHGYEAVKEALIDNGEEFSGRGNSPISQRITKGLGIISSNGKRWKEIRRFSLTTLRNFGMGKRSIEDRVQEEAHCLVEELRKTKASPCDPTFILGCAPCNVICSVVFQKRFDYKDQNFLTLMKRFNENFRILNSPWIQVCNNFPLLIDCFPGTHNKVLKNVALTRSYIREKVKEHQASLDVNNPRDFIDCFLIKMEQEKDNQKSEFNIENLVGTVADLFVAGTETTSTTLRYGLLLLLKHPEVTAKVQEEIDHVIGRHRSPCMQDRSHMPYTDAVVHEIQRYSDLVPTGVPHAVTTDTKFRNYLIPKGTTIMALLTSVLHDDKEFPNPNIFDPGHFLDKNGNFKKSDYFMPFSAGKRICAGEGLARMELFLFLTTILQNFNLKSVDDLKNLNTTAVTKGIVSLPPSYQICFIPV

[8] = biological target: CYP2C9 (Homo sapiens, UniProt P11712); experiment: CYP inhibition in human liver microsomes, CYP2C9; details: HLM; for % Inhibition of Control Activity CYP2C9: NI: No Inhibitin
Chain of CYP2C9 (P11712 whole entry): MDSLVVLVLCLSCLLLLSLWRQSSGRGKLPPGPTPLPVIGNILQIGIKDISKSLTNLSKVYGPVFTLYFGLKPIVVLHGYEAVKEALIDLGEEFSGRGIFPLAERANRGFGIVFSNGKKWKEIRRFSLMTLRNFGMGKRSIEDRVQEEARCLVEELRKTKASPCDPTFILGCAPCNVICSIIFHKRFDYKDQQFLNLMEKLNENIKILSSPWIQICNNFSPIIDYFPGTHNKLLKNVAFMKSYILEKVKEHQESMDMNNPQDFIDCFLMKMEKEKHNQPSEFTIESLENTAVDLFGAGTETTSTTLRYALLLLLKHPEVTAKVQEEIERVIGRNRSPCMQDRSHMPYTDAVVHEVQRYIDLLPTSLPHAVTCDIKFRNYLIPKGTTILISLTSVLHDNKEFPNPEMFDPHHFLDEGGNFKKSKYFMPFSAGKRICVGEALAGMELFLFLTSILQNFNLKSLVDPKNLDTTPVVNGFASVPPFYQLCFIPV

[9] = biological target: CYP2D6 (Homo sapiens, UniProt P10635); experiment: CYP inhibition in human liver microsomes, CYP2D6; details: HLM, NI: No Inhibitin
Chain of CYP2D6 (P10635 whole entry): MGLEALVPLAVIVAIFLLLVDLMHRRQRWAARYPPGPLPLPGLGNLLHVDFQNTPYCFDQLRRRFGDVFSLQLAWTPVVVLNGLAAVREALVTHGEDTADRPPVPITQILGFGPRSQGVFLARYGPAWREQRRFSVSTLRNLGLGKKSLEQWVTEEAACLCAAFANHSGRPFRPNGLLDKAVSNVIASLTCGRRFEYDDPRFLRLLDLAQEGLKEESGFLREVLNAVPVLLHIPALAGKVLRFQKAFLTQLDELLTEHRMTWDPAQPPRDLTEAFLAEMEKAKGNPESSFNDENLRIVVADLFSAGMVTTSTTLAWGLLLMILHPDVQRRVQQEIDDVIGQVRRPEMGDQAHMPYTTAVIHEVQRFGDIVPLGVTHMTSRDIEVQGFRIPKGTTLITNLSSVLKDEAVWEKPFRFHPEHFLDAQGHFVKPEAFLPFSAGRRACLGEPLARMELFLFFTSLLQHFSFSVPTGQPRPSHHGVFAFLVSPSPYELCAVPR

[10] = biological target: T3, rCYP1A2 (Homo sapiens, UniProt P05177); experiment: Metabolic stability / reaction phenotyping with recombinant human CYP1A2; details: for % Metabolized at 30 min Incubation with Human Liver Fractions/Enzymes rCYP1A2: 1 µM test compound, 100 pmol/mL
T3 sequence (P05177 1-516): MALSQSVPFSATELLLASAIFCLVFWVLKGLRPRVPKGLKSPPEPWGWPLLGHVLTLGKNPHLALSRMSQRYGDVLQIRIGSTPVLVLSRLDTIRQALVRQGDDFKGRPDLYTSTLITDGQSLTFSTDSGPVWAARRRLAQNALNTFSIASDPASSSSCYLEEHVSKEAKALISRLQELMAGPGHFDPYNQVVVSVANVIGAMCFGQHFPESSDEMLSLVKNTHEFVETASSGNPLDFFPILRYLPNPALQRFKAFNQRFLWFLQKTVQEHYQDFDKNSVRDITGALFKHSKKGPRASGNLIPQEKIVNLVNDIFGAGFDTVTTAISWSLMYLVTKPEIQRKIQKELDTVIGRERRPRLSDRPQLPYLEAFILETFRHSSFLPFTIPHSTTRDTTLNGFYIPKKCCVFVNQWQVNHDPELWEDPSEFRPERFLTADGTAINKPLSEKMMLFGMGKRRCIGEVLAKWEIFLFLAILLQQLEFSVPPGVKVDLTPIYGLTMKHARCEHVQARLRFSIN

[11] = biological target: T4, rCYP2C8 (Homo sapiens, UniProt P10632); experiment: Metabolic stability / reaction phenotyping with recombinant human CYP2C8; details: for % Metabolized at 30 min Incubation with Human Liver Fractions/Enzymes rCYP2C8: 1 µM test compound, 100 pmol/mL
T4 sequence (P10632 1-490): T2 sequence (P10632 1-490)

[12] = biological target: rCYP2C9 (Homo sapiens, UniProt P11712); experiment: Metabolic stability / reaction phenotyping with recombinant human CYP2C9; details: for % Metabolized at 30 min Incubation with Human Liver Fractions/Enzymes rCYP2C9: 1 µM test compound, 100 pmol/mL
Chain of rCYP2C9 (P11712 whole entry): as the sequence (P11712 whole entry) above

[13] = biological target: rCYP2D6 (Homo sapiens, UniProt P10635); experiment: Metabolic stability / reaction phenotyping with recombinant human CYP2D6; details: for % Metabolized at 30 min Incubation with Human Liver Fractions/Enzymes rCYP2D6: 1 µM test compound, 100 pmol/mL
Chain of rCYP2D6 (P10635 whole entry): as the sequence (P10635 whole entry) above

[14] = biological target: rCYP2C19 (Homo sapiens, UniProt P33261); experiment: Metabolic stability / reaction phenotyping with recombinant human CYP2C19; details: for % Metabolized at 30 min Incubation with Human Liver Fractions/Enzymes rCYP2C19: 1 µM test compound, 100 pmol/mL
Chain of rCYP2C19 (P33261 whole entry): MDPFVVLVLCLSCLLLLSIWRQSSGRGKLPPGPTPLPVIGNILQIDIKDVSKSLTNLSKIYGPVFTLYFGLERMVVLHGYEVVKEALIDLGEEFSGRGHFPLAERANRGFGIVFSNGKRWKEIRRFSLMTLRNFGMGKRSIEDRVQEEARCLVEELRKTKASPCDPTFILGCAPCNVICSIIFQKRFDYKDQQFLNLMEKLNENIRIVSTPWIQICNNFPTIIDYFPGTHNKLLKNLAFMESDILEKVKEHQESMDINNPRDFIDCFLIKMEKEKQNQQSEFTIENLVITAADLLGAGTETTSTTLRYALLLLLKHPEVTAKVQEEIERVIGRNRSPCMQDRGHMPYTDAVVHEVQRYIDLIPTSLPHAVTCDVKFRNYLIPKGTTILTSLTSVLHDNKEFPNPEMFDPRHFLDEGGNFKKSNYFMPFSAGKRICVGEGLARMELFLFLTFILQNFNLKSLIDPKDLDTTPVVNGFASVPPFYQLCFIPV

[15] = pulmonary tuberculosis patients; cited from earlier work
[16] = cited from earlier work
[17] = biological target: T5, CYP1A2 (Homo sapiens, UniProt P05177); experiment: CYP inhibition in human liver microsomes, CYP1A2; details: HLM; for % Inhibition of Control Activity CYP1A2: NI: No Inhibitin
T5 sequence (P05177 1-516): T3 sequence (P05177 1-516)

[18] = biological target: CYP2C19 (Homo sapiens, UniProt P33261); experiment: CYP inhibition in human liver microsomes, CYP2C19; details: HLM; for % Inhibition of Control Activity CYP2C19: NI: No Inhibitin
Chain of CYP2C19 (P33261 whole entry): as above

[19] = human, recombinant enzyme, pH 7.4
[20] = human, human liver microsomes, pH 7.4, probe paclitaxel
[21] = human, recombinant human CYP1A2, 1 µM, pH 7.4
[22] = human, recombinant human CYP2C8, 1 µM, pH 7.4
[23] = human, recombinant human CYP2D6, 1 µM, pH 7.4
[24] = human, recombinant human CYP2C19, 1 µM, pH 7.4

Chain of rCYP3A4 (P08684 whole entry): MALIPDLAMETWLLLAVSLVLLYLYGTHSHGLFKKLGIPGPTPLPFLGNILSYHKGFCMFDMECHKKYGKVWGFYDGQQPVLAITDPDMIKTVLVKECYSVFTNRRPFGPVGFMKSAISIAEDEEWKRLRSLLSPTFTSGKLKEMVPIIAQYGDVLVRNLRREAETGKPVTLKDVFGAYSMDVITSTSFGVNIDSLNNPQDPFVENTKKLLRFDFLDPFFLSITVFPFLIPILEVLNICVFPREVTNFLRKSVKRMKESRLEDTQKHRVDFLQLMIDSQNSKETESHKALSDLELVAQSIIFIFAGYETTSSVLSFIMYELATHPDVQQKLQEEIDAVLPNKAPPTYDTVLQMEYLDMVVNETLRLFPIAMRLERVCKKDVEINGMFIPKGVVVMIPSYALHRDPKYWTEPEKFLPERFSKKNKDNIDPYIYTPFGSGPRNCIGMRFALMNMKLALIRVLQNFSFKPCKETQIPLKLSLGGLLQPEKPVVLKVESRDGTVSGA
T1 sequence (P08684 2-503): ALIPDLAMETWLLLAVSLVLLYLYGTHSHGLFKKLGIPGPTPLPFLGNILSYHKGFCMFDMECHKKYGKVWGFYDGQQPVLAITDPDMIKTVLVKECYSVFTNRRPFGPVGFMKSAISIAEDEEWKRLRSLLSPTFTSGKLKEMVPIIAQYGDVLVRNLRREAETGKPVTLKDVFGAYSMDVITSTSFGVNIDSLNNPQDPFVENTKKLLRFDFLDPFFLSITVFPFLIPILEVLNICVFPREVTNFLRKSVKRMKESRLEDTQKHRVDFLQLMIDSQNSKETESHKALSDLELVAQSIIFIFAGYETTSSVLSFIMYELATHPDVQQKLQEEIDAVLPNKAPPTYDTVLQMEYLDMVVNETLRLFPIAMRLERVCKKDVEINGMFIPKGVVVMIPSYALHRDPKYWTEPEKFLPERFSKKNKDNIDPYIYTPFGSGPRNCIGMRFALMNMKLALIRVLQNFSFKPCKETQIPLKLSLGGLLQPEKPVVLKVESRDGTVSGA

## O=C1Cc2cc(CCN3CCN(c4nsc5ccccc45)CC3)c(Cl)cc2N1 [Ziprasidone, ziprasidone, reference compound]
[1]
  % Metabolized at 30 min Incubation with Human Liver Fractions/Enzymes Cytosol: 10.86%
[2]; human, 10 µM, pH 7.4
  % Inhibition of Control Activity CYP3A4 (substrate, testosterone): 33.06%
[3]; human, pH 7.4
  Predicted Microsomal Clint, CYP3A4: 53.530 µL/min/mg Protein
[3]; human, recombinant enzyme, 0.5 h, pH 7.4
  % Metabolized at 30 min Incubation with Human Liver Fractions/Enzymes rCYP3A4: 76.47%
[3]; [19]
  % Contribution of CYP Enzymes (fmCYP) in Metabolism, CYP3A4: 86.67%
  rCYP Clint, CYP3A4: 0.482 µL/min/pmol
[4]
  inhibition at 2 µM: 8.3%
[5]
  inhibition at 2 µM: 22%
  inhibition at 10 µM: 31.1%
[6]
  % Metabolized at 30 min Incubation with Human Liver Fractions/Enzymes HLM: 83.11%
[7]; [20]
  inhibition at 2 µM: < 0%
  inhibition at 10 µM: 12%
[8]; inhibitor 10 µM, 10 µM
  % Inhibition of Control Activity CYP2C9: 1.44%
[9]; inhibitor 10 µM, 10 µM
  % Inhibition of Control Activity CYP2D6: 11.70%
[10]
  % Metabolized at 30 min Incubation with Human Liver Fractions/Enzymes rCYP1A2: 5.98%
[10]; [21]
  % Contribution of CYP Enzymes (fmCYP) in Metabolism, CYP1A2: 1.73%
  Predicted Microsomal Clint, CYP1A2: 1.069 µL/min/mg Protein
  rCYP Clint, CYP1A2: 0.021 µL/min/pmol
[11]
  % Metabolized at 30 min Incubation with Human Liver Fractions/Enzymes rCYP2C8: 22.84%
[11]; [22]
  % Contribution of CYP Enzymes (fmCYP) in Metabolism, CYP2C8: 8.96%
  Predicted Microsomal Clint, CYP2C8: 5.532 µL/min/mg Protein
  rCYP Clint, CYP2C8: 0.086 µL/min/pmol
[12]
  % Metabolized at 30 min Incubation with Human Liver Fractions/Enzymes rCYP2C9: 0.00%
[13]
  % Metabolized at 30 min Incubation with Human Liver Fractions/Enzymes rCYP2D6: 3.73%
[13]; [23]
  % Contribution of CYP Enzymes (fmCYP) in Metabolism, CYP2D6: 0.21%
  Predicted Microsomal Clint, CYP2D6: 0.127 µL/min/mg Protein
  rCYP Clint, CYP2D6: 0.013 µL/min/pmol
[14]
  % Metabolized at 30 min Incubation with Human Liver Fractions/Enzymes rCYP2C19: 21.17%
[14]; [24]
  % Contribution of CYP Enzymes (fmCYP) in Metabolism, CYP2C19: 2.44%
  Predicted Microsomal Clint, CYP2C19: 1.507 µL/min/mg Protein
  rCYP Clint, CYP2C19: 0.079 µL/min/pmol

## CC(=O)NC[C@H]1CN(c2ccc(N3CC[S+]([O-])CC3)c(F)c2)C(=O)O1 [sutezolid sulfoxide]
[15]
  metabolite to parent (sutezolid sulfoxide/ sutezolid) median concentration ratio: 7.1

## triclabendazole sulfoxide
[1]
  % Metabolized at 30 min Incubation with Human Liver Fractions/Enzymes Cytosol: 0.00%
[2]; 2 µM
  % Inhibition of Control Activity CYP3A4 (substrate, testosterone): 0.18%
[2]; 10 µM
  % Inhibition of Control Activity CYP3A4 (substrate, testosterone): 14.43%
[3]
  Predicted Microsomal Clint, CYP3A4: 1.626 µL/min/mg Protein
[3]; 1 µM test compound, 100 pmol/mL, 30 min
  % Metabolized at 30 min Incubation with Human Liver Fractions/Enzymes rCYP3A4: 4.30%
[3]; human, recombinant enzyme
  rCYP Clint, CYP3A4: 0.015 µL/min/pmol
[3]; recombinant enzyme
  % Contribution of CYP Enzymes (fmCYP) in Metabolism, CYP3A4: 2.35%
[16]; human patients at therapeutic doses of triclabendazole
  Cmax: 38.6 µM
[16]; humans
  half-life: 11 to 12 h
[16]; humans, standard dose of triclabendazole of 10 mg/kg
  peak concentration: 38.6 µM
[6]
  % Metabolized at 30 min Incubation with Human Liver Fractions/Enzymes HLM: 18.08%
[17]; inhibitor 2 µM
  % Inhibition of Control Activity CYP1A2: 39.42%
[17]; inhibitor 10 µM
  % Inhibition of Control Activity CYP1A2: 69.42%
[17]; read-out: IC50 CYP 1A2
  IC50: 4.19 µM
[7]; inhibitor 2 µM, HLM
  % Inhibition of Control Activity CYP2C8: 11.20%
[7]; inhibitor 10 µM, HLM
  % Inhibition of Control Activity CYP2C8: 53.67%
[7]; read-out: IC50 CYP 2C8, HLM
  IC50: 8.95 µM
[8]; inhibitor 2 µM
  % Inhibition of Control Activity CYP2C9: 49.60%
[8]; inhibitor 10 µM
  % Inhibition of Control Activity CYP2C9: 86.62%
[8]; read-out: IC50 CYP 2C9
  IC50: 1.95 µM
[18]; inhibitor 2 µM
  % Inhibition of Control Activity CYP2C19: 84.33%
[18]; inhibitor 10 µM
  % Inhibition of Control Activity CYP2C19: 88.87%
[18]; read-out: IC50 CYP 2C19
  IC50: 0.22 µM
[9]; inhibitor 2 µM
  % Inhibition of Control Activity CYP2D6: 1.63%
[9]; inhibitor 10 µM
  % Inhibition of Control Activity CYP2D6: 3.13%
[10]
  Predicted Microsomal Clint, CYP1A2: 3.968 µL/min/mg Protein
  % Metabolized at 30 min Incubation with Human Liver Fractions/Enzymes rCYP1A2: 20.46%
[10]; human, recombinant enzyme
  rCYP Clint, CYP1A2: 0.076 µL/min/pmol
[10]; recombinant enzyme
  % Contribution of CYP Enzymes (fmCYP) in Metabolism, CYP1A2: 5.73%
[11]
  % Metabolized at 30 min Incubation with Human Liver Fractions/Enzymes rCYP2C8: 0.00%
[12]
  Predicted Microsomal Clint, CYP2C9: 57.057 µL/min/mg Protein
  % Metabolized at 30 min Incubation with Human Liver Fractions/Enzymes rCYP2C9: 83.19%
[12]; human, recombinant enzyme
  rCYP Clint, CYP2C9: 0.594 µL/min/pmol
[12]; recombinant enzyme
  % Contribution of CYP Enzymes (fmCYP) in Metabolism, CYP2C9: 82.43%
[13]
  Predicted Microsomal Clint, CYP2D6: 0.125 µL/min/mg Protein
  % Metabolized at 30 min Incubation with Human Liver Fractions/Enzymes rCYP2D6: 3.68%
[13]; human, recombinant enzyme
  rCYP Clint, CYP2D6: 0.012 µL/min/pmol
[13]; recombinant enzyme
  % Contribution of CYP Enzymes (fmCYP) in Metabolism, CYP2D6: 0.18%
[14]
  Predicted Microsomal Clint, CYP2C19: 6.442 µL/min/mg Protein
  % Metabolized at 30 min Incubation with Human Liver Fractions/Enzymes rCYP2C19: 63.84%
[14]; human, recombinant enzyme
  rCYP Clint, CYP2C19: 0.339 µL/min/pmol
[14]; recombinant enzyme
  % Contribution of CYP Enzymes (fmCYP) in Metabolism, CYP2C19: 9.31%
